Measured values: publication PMC11873239, “A covalent chemical probe for Chikungunya nsP2 cysteine protease with antialphaviral activity and proteome-wide selectivity” (Scientific Reports, 2025)

What was measured:
Assay type in all cases: binding
[1] = molecular target: HEK293 cell lysate proteins and CHIKV nsP2 (Homo sapiens, UniProt Q9UHB7)
[2] = molecular target: HEK293 cell lysate proteins and CHIKV nsP2 (Homo sapiens, UniProt Q08188)
[3] = molecular target: HEK293 cell lysate proteins and CHIKV nsP2 (Homo sapiens, UniProt Q12872)
[4] = molecular target: HEK293 cell lysate proteins and CHIKV nsP2 (Homo sapiens, UniProt Q02413)
[5] = molecular target: HEK293 cell lysate proteins and CHIKV nsP2 (Homo sapiens, UniProt Q14151)
[6] = molecular target: HEK293 cell lysate proteins and CHIKV nsP2 (Homo sapiens, UniProt P68104)
[7] = molecular target: HEK293 cell lysate proteins and CHIKV nsP2 (Homo sapiens, UniProt P11142)
[8] = molecular target: HEK293 cell lysate proteins and CHIKV nsP2 (Homo sapiens, UniProt A8K2U0)
Sequence of HEK293 cell lysate proteins and CHIKV nsP2 (Homo sapiens, UniProt A8K2U0) (A8K2U0 18-1454): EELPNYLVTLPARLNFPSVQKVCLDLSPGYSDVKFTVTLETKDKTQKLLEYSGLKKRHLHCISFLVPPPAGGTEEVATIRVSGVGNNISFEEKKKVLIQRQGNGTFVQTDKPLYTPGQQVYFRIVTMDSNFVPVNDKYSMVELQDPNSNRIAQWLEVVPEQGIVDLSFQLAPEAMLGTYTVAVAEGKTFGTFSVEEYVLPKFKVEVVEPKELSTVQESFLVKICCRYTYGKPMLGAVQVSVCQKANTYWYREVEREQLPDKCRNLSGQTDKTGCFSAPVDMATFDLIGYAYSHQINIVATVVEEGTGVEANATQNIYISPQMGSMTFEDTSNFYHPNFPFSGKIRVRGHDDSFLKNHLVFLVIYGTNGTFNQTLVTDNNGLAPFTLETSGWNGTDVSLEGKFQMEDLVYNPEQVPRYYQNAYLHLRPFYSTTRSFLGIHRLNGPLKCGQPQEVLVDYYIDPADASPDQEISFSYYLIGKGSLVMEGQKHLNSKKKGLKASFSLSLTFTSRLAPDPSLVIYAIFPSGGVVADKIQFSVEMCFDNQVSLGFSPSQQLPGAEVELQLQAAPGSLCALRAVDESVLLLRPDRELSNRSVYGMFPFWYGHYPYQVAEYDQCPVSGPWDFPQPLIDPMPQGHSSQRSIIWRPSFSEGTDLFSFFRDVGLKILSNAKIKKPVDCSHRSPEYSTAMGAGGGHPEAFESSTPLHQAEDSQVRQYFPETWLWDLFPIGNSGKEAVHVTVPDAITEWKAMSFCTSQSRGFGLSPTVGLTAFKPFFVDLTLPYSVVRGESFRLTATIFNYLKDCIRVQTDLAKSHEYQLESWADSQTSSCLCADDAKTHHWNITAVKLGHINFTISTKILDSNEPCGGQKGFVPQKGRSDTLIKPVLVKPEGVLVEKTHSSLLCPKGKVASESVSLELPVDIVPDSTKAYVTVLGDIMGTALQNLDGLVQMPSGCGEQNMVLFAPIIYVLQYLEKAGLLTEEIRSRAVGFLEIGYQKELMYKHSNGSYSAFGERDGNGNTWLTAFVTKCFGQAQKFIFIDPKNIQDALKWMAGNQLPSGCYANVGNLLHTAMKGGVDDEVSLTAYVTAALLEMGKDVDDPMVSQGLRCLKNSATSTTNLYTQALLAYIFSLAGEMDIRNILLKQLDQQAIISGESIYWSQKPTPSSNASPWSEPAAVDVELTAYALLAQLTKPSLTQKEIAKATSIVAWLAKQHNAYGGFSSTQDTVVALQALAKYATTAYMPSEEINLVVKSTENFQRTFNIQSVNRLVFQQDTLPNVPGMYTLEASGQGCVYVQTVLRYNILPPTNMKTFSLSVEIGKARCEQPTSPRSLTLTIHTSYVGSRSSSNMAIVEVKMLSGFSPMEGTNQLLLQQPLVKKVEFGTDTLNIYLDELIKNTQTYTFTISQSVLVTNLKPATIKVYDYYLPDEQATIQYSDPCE

[9] = molecular target: HEK293 cell lysate proteins and CHIKV nsP2 (Homo sapiens, UniProt Q9UKV3)
[10] = molecular target: HEK293 cell lysate proteins and CHIKV nsP2 (Homo sapiens, UniProt O75223)
[11] = molecular target: HEK293 cell lysate proteins and CHIKV nsP2 (Homo sapiens, UniProt Q15517)
[12] = molecular target: HEK293 cell lysate proteins and CHIKV nsP2 (Homo sapiens, UniProt P42357)
[13] = molecular target: HEK293 cell lysate proteins and CHIKV nsP2 (Homo sapiens, UniProt P31151)
[14] = molecular target: HEK293 cell lysate proteins and CHIKV nsP2 (Homo sapiens, UniProt P27708)
[15] = molecular target: HEK293 cell lysate proteins (Homo sapiens, UniProt Q13835)
[16] = molecular target: HEK293 cell lysate proteins (Homo sapiens, UniProt P32119)
[17] = molecular target: HEK293 cell lysate proteins (Homo sapiens, UniProt Q96P63)
[18] = molecular target: HEK293 cell lysate proteins (Homo sapiens, UniProt P26358)
Sequence of HEK293 cell lysate proteins (Homo sapiens, UniProt P26358) (P26358 whole entry): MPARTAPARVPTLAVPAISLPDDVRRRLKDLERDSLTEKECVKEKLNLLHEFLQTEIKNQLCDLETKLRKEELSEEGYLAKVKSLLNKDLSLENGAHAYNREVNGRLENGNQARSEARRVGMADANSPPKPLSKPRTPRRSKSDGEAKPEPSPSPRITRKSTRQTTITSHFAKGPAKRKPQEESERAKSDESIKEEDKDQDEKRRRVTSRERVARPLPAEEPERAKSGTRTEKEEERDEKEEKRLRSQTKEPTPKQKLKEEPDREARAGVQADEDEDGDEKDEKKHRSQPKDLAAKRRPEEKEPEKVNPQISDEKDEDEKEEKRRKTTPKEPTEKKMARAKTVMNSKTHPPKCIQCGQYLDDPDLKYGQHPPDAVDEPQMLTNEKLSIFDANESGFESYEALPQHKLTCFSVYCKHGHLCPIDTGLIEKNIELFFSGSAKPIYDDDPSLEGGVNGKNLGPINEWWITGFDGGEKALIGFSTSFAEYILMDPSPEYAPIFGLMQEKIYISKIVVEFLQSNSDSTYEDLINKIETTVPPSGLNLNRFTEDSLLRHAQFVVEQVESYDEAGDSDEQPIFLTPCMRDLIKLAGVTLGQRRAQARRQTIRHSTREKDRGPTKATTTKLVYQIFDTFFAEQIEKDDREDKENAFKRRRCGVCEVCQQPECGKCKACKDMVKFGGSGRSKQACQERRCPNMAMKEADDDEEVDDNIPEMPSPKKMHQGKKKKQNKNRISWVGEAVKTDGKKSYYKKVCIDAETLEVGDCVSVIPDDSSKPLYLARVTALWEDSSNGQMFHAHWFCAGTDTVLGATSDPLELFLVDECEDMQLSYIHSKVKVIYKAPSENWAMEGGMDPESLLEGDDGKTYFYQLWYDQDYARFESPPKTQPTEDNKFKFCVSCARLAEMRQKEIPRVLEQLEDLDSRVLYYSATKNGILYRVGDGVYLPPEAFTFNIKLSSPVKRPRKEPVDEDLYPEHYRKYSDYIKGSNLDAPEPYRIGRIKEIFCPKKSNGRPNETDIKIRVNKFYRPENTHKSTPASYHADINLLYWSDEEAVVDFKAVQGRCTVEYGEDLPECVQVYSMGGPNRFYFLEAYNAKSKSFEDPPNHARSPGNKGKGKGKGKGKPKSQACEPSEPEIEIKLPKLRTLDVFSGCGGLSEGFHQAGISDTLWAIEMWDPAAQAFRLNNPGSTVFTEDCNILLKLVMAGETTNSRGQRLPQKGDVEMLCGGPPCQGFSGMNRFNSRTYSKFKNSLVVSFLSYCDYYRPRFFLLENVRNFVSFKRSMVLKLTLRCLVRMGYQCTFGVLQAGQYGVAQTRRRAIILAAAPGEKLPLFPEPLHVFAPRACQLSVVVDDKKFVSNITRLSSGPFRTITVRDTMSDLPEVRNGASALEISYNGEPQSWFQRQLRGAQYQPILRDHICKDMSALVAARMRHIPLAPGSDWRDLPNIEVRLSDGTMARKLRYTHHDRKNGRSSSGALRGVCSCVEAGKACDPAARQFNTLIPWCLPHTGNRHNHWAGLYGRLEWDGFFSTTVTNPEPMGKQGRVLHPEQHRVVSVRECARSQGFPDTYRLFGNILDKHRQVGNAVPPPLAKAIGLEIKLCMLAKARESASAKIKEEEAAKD

[19] = molecular target: HEK293 cell lysate proteins (Homo sapiens, UniProt Q14151)
[20] = molecular target: HEK293 cell lysate proteins (Homo sapiens, UniProt P04406)
[21] = molecular target: HEK293 cell lysate proteins (Homo sapiens, UniProt P22528)
[22] = molecular target: HEK293 cell lysate proteins (Homo sapiens, UniProt P84103)
Sequence of HEK293 cell lysate proteins (Homo sapiens, UniProt P84103) (P84103 whole entry): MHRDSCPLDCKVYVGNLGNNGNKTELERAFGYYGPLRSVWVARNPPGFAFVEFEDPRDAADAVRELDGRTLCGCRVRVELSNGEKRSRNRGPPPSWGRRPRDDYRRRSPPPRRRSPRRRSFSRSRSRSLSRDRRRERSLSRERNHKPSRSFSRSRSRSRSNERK

[23] = molecular target: HEK293 cell lysate proteins (Homo sapiens, UniProt P11586)
[24] = molecular target: HEK293 cell lysate proteins (Homo sapiens, UniProt P22531)
Sequence of HEK293 cell lysate proteins (Homo sapiens, UniProt P22531) (P22531 whole entry): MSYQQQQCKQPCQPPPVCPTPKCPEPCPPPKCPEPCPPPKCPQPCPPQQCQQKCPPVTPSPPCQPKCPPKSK

[25] = molecular target: HEK293 cell lysate proteins (Homo sapiens, UniProt P04040)
[26] = molecular target: HEK293 cell lysate proteins (Homo sapiens, UniProt P07339)
[27] = molecular target: HEK293 cell lysate proteins (Homo sapiens, UniProt P42357)
[28] = molecular target: HEK293 cell lysate proteins (Homo sapiens, UniProt P23490)
[29] = molecular target: HEK293 cell lysate proteins (Homo sapiens, UniProt P60709)
[30] = molecular target: HEK293 cell lysate proteins (Homo sapiens, UniProt Q12872)
[31] = molecular target: HEK293 cell lysate proteins (Homo sapiens, UniProt O75342)
[32] = molecular target: HEK293 cell lysate proteins (Homo sapiens, UniProt P31025)
Sequence of HEK293 cell lysate proteins (Homo sapiens, UniProt P31025) (P31025 19-176): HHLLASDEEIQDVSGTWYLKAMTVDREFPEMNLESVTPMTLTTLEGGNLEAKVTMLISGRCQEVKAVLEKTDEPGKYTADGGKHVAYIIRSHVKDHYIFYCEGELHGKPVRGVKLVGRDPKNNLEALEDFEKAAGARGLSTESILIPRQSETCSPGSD

[33] = molecular target: HEK293 cell lysate proteins (Homo sapiens, UniProt Q96QA5)
Sequence of HEK293 cell lysate proteins (Homo sapiens, UniProt Q96QA5) (Q96QA5 whole entry): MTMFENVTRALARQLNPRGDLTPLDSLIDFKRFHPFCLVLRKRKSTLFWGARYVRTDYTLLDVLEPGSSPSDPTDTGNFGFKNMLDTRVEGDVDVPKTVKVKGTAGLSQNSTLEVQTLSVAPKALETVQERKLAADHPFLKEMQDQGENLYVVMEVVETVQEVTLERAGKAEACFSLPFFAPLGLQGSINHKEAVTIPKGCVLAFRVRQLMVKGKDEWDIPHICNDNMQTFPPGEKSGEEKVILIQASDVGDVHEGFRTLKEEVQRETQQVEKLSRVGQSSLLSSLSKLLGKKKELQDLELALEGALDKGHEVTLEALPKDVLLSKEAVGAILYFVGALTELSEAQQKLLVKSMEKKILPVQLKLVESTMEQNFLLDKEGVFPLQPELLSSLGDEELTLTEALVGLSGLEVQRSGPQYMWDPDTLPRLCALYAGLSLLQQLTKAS

[34] = molecular target: HEK293 cell lysate proteins (Homo sapiens, UniProt Q8WVV4)
[35] = molecular target: HEK293 cell lysate proteins (Homo sapiens, UniProt Q15648)
[36] = molecular target: HEK293 cell lysate proteins (Homo sapiens, UniProt Q52LG2)
[37] = molecular target: HEK293 cell lysate proteins (Homo sapiens, UniProt P05109)
Sequence of HEK293 cell lysate proteins (Homo sapiens, UniProt P05109) (P05109 whole entry): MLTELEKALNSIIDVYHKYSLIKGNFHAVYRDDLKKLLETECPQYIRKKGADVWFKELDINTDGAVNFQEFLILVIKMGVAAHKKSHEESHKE

[38] = molecular target: HEK293 cell lysate proteins (Homo sapiens, UniProt P25311)
Sequence of HEK293 cell lysate proteins (Homo sapiens, UniProt P25311) (P25311 21-298): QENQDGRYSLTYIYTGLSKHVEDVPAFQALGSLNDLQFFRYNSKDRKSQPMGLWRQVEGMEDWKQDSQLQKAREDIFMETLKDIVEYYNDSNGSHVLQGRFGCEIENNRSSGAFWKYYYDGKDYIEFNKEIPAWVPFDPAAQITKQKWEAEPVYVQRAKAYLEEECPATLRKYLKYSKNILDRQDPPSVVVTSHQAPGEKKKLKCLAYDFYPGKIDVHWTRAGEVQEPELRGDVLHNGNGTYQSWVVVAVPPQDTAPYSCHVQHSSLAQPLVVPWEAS

[39] = molecular target: HEK293 cell lysate proteins (Homo sapiens, UniProt P41252)
[40] = molecular target: HEK293 cell lysate proteins (Homo sapiens, UniProt Q14684)
Sequence of HEK293 cell lysate proteins (Homo sapiens, UniProt Q14684) (Q14684 whole entry): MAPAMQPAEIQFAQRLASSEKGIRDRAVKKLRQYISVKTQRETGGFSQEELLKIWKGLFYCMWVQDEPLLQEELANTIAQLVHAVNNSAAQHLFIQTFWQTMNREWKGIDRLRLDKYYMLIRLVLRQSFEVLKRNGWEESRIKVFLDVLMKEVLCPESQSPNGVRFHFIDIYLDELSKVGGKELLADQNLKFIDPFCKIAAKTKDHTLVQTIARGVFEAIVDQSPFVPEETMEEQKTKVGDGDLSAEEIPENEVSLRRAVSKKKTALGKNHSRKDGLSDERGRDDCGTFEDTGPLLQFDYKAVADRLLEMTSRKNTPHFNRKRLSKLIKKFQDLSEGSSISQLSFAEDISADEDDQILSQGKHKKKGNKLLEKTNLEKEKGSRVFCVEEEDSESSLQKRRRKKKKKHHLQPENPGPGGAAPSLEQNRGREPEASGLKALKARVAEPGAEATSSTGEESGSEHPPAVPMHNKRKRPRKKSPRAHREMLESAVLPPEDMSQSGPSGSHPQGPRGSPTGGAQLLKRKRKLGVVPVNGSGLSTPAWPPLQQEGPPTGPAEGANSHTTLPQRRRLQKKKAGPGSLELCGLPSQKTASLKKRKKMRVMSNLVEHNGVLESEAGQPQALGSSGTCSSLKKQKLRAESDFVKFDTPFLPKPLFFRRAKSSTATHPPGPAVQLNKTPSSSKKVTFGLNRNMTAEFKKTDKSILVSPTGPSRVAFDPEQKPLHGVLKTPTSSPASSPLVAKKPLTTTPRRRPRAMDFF

In the case of `C#CCOc1ccccc1-c1cc(C(=O)NC/C=C/S(C)(=O)=O)on1` [VS, (E)-N-(3-(methylsulfonyl)allyl)−3-(2-(prop-2-yn-1-yloxy)phenyl)isoxazole-5-carboxamide], the Log2 fold change [1] is reported as -0.42, the Log2 fold change [2] is reported as 1.61 and the Log2 fold change [3] is reported as -1.75. The Log2 fold change [4] was 1.36, the Log2 fold change [5] was 1.50 and the Log2 fold change [6] was 0.56. The Log2 fold change [7] was 1.15, the Log2 fold change [8] was 1.10 and the Log2 fold change [9] was -1.88. It also gave a Log2 fold change [10] of 0.96, a Log2 fold change [11] of 1.22 and a Log2 fold change [12] of 1.12. It also gave a Log2 fold change [13] of -1.22, a Log2 fold change [14] of 3.37 and a Log2 fold change [15] of 3.81. For the same molecule, the Log2 fold change [16] was 2.04, the Log2 fold change [17] was 1.71 and the Log2 fold change [18] was 1.64. For the same molecule, the Log2 fold change [19] was 1.50, the Log2 fold change [20] was 1.78 and the Log2 fold change [21] was 2.72. It also gave a Log2 fold change [22] of 1.43, a Log2 fold change [23] of -1.66 and a Log2 fold change [24] of 2.37. It also gave a Log2 fold change [25] of 1.41, a Log2 fold change [26] of 1.67 and a Log2 fold change [27] of 1.12. It also gave a Log2 fold change [28] of 2.79, a Log2 fold change [29] of 1.54 and a Log2 fold change [30] of -1.75. For the same molecule, the Log2 fold change [31] was 2.14, the Log2 fold change [32] was 1.54 and the Log2 fold change [33] was 1.51. For the same molecule, the Log2 fold change [34] was 5.21, the Log2 fold change [35] was -1.21 and the Log2 fold change [36] was 3.14. The Log2 fold change [37] was 1.58, the Log2 fold change [38] was 1.43 and the Log2 fold change [39] was 1.48. The Log2 fold change [40] was -2.16.
